We go through one compound from US20260130952A1, “ENGINEERED BACTERIA AND METHODS OF USE IN TUMOR REMODELING” (priority 2021, published 2026).

The experiment has as its system 4T1 tumors. The experiment in a line: Antitumor study in 4T1 syngeneic tumor model. It counts as in vivo, BALB/cJ mice. The protocol:
6-8 weeks old female BALB/cJ and male C57BL/6 mice (Jackson Labs) were used in all experiments. For tumor induction, […] tumor cells/0.1 ml saline (4T1, MDA-MB-231, RInk1, PANC1, MC38) were injected subcutaneously in the shaved right flank of anesthetized (2% isoflurane) mice. Tumor measurements were taken every alternate day and tumor volume was calculated using the following formula: 0.5*length*width*width. For therapeutic assessment or bioluminescent imaging, each bacterial dose contained […] bacteria suspended in 0.1 ml saline was administered intravenously. Lapatinib was suspended in a solution containing 0.5% w/v HPMC and 0.10% w/v Tween 80 and each dose delivered 5 mg/Kg orally. At the study end point the mice were euthanized via carbon dioxide inhalation and cervical dislocation followed by collection of organs. For cytokine profiling, blood withdrawal was performed after a period of 24 hours via the submandibular vein and collected in tubes containing heparin as an anticoagulant (40 U/ml of blood). […]
To test the hypothesis, mice were treated orally with lapatinib at a dose of 5 mg/kg (FIG. 5A). The following 5 treatment groups were assessed in parallel: control mice with saline injections, non-hypervesiculating ECHy+lapatinib, ΔECHy, lapatinib and ΔECHy+lapatinib (n=5). Tumor volume was measured every alternate day. […]

`CS(=O)(=O)CCNCc1ccc(-c2ccc3ncnc(Nc4ccc(OCc5cccc(F)c5)c(Cl)c4)c3c2)o1` [lapatinib]: the median survival (endpoint tumor size 1000 mm^3, bacteria 10^6 i.v., lapatinib 5 mg/kg oral, anti-PDL1 5 mg/kg) is 20 days. Besides, the “tumor growth rate / progression” value (n=5) is “comparatively slower”.
